Experiments:
[1] = system: CT26 syngeneic tumor; experiment: Antitumor therapy in CT26 syngeneic mouse model (peptide alone); format: in vivo; details: i.v. every alternative day, 24 days, FIG. 5b
Method: (§1) 6-8-week-old WT Balb/c mice were purchased. Mice was cared and maintained under the guidelines of the Institutional Animal Care and Use Committee (IACUC) of Kyungpook National University (2014-0001-8.). Tumor was injected onto the lower right flank of the mice. For the in-vivo homing imaging, the tumor was developed for 7 days, after the tumor size reached to 100 mm^3, the mice were injected with 100 μl of […] Flamma-675 NIR fluorescence dye labelled peptides and allow the complete circulation for an hour. After incubation, the mice were anesthetized, and the image was taken using the IVIS imaging system. […] Tumor size was measured using a digital caliper, and the tumor volume was calculated using the formula (Volume ¼ (L−W−H)/2. (Length: longest dimension, Width: shorter dimension, parallel to the mouse body and Height: perpendicular to the length and width). All mice were checked for the ulceration and at the end of the treatment and the mice were sacrificed for the immune cell analysis.
(§2) Tumors were isolated, minced and incubated with a digestion buffer containing collagenase D (5 mg/ml) with the RPMI-1640 medium at 37° C. for 40 min. […] The single cell suspension was made ready to use and CD45 antibody was used to stain the tumor infiltrating leukocytes and then analyzed with following antibodies for CD4, CD8 and F4/80. […]

[2] = system: CT26 mouse syngeneic colon tumor; experiment: Combination therapy of peptides with doxorubicin in CT26 syngeneic colon tumor model; format: in vivo; details: flow cytometry, FIG. 6e
Method: as §1, §2

[3] = system: PD-L1 on MDA MB231 cells; experiment: Peptide and receptor internalization assay in MDA MB231 cells; format: cell-based, human; details: MDA MB231, FIG. 2d
Method: MDA MB231, CT26, MCF7, Hek29 cells (1×10^5) were seeded in eight well chamber slides for overnight. Next day, the cells were washed twice with PBS and incubated with 1% BSA at RT for 1 hr to reduce the non-specific binding of peptides. The cells were then incubated with different concentration ([…]) of FITC conjugated peptide for 1 hr at 4° C. After fixation, cells were washed, and counter stained with DAPI, mounted and subjected to confocal microscopy (Zeiss, Oberkochen, Germany). For the peptide internalization assay, the MDA MB231 cells were incubated with […] concentration of FITC-conjugated peptides at 37° C. for 1 hr 30 min, the procedure was then continued as previously described. For the receptor internalization assay, first the internalization of peptide was obtained as described above and then after several washing steps with PBS, the PD-L1 antibody (1:100 dilution) was incubated with the cell for 1 hr 30 min at 37° C. […] For flow cytometry, cells (1×10^6) were harvested and then suspended in the culture medium containing 1% BSA at RT for 1 hr for blocking and then incubated with FITC-labelled PD-L1 for another 1 hr at 4° C. After several washing, 300 ul of cell suspension with PBS was subjected to flow cytometry (BD, Franklin Lakes, N.J.). […]

Substance | tumor volume control compared to control peptide and PBS group [1] | percentage of CD4+ T cells in tumor tissue, increased value ("to") [2] [%] | surface PD-L1 antibody staining after peptide internalization (receptor internalization) [3]
CLQKTPKQC [PD-L1Pep-1] | robust effect | 6 | 
NSSSVDK (phage coat protein used as control peptide) |  |  | did not decrease

Reference: patent US11306119B2, “Peptide bound to PD-L1 and use thereof” (KYUNGPOOK NATIONAL UNIVERSITY INDUSTRY-ACADEMIC COOPERATION …, priority 2017, dated 2022)
